What was measured:
[1] = system: MΦ^BM; test: Macrophage cell length measurement; format: cell-based, mouse; details: GA treatment (FIG. 16A-16B)
Description: A set of three Stealth OPN siRNAs made up of 25-bp duplex oligoribonucleotides each were used with sequences corresponding to the sense and antisense strands of OPN (Invitrogen). Equal amounts (100 nM each) of siRNAs were mixed and diluted in OptiMEM (Gibco) to finalconcentration of 100nmol/L, then transiently transfected into MΦ^BM using Lipofectamine® RNAiMAX Transfection Reagent (Invitrogen), per manufacturer's protocol. Control macrophages were transfected with Stealth RNAi™ siRNA Negative Control. MΦ^BM were incubated for 48 hours after transfection, and were used for subsequent experiments.
The long and short axes of cells were manually measured in μm from microscopic images (McWhorter et al., Proceedings of the National Academy of Sciences of the U.S. Pat. No. 2,013,110:17253-17258) using length tools in the Axiovision Rel. 4.8 software package. At least 100 cells were examined in each experiment where individual cells were assayed by microscopy.
Macrophages can acquire distinct phenotypes and biological functions depending on their microenvironment. Past studies reported that OPN promotes macrophages to switch to the anti-inflammatory M2 phenotype. The possible role of OPN in macrophage polarization towards an anti-inflammatory phenotype, which has been associated with elongated cell shape was explored. […]

[2] = system: bone marrow-derived macrophages (MΦ^BM); test: Fibrillar Aβ1-42 phagocytosis assay in bone marrow-derived macrophages; format: cell-based, mouse
Description: Lyophilized non-fluoro amyloid-β1-42 peptide (#20276; Anaspec) was initially monomerized by dissolving it in ice-cold HFIP (hexafluoroisopropanol) (#52512; Sigma) to a final concentration of 1 mM and then aliquoted in sterile siliconized microcentrifuge tubes. The HFIP was first evaporated while in the sterile hood and then under vacuum conditions in a SpeedVac for 2 h to remove any trace of HFIP; the peptide film was stored at −20° C. until use. To induce fibril formation, fluoro (HiLyte647; #64161; Anaspec) and non-fluoro amyloid-β1-42 films were resuspended in media to which 10% of sterile NaOH 60 mM was first added and the media were vortexed for 30 s. Then, a sterile 45% H2O and a sterile 45% solution of 20 mM NaH2PO4+Na2HPO4 (pH 7.4) were added, and the media were vortexed again and incubated on a shaker for 2 weeks at 37° C. Pre-formed amyloid-β1-42 fibrils were then sonicated for 60 s and diluted to 100 nM using the same media prior to the phagocytosis assay.
To test amyloid-β phagocytosis by macrophage, in repeated experiments monocytes were isolated from the bone marrow of wild-type mice (n=18 mice) and differentiated into macro-phage by 7-day cultivation in complete RPMI-1640 medium (#21870; Life Technologies) with 10% serum and 20 ng/ml MCSF (#315-02; PeproTech). Bone marrow-derived macrophages (MΦBM) were generated from femurs and tibiae cultured for 6-7 days in complete RPMI 1640 medium (Life Technologies) with 10% FBS, 100 U/ml penicillin, 100 μg/ml streptomycin, 2 mM L-glutamine and 20 ng/ml MCSF (PeproTech). Primary cultures of macrophage were then plated at 1.2×10^5 cells per well (3-4 wells for each condition) in 24-well tissue-culture plates on glass cover-slips overnight. Next, macrophages were either treated with 30 μg/ml GA (Copaxone®; TEVA Neuroscience), Brefeldin A (BFA; Sigma, 1X), or 10 μM Minocycline (Sigma) for the duration of 1, 3, or 24 h, or not treated (control group). Before addition of fibrillar amyloid-β1-42, the cells were chilled in a 4° C. ice bath for 5 min; immediately after addition of the preformed fibrillar amyloid-β1-42 (100 nM), the plates were centrifuged at 515g in 25° C. followed by incubation at 37° C. for 30 or 60 min. The cells were then rinsed with amyloid-β-free medium to remove non-incorporated amyloid-β and later washed twice with PBS. Methanol (99.8%) at −20° C. for 20 min or 4% paraformaldehyde at room temperature for 12 min was used for fixation of the cells followed by repeated washes with PBS. […] The fluorescent signal and its total area were determined and quantified by the conversion of individual images to greyscale and standardizing to baseline using histogram-based thresholds with NIH ImageJ software. […]

For glatiramer acetate [GA], the cell length increase [1] was 1.3 fold, the “increase of Aβ phagocytosis” value ([2]; 24 hours treatment, then fAβ1-42 for 30 min, quantitative ICC (FIG. 16E)) was 2.5 fold and the “increase of fibrillar Aβ1-42 uptake in MΦ^BM” value ([2]; GA pretreated, 100 nM fibrillar Aβ1-42 for 30 min, qICC and ELISA) was 2.5-2.85 fold. The “rise in fAβ1-42 uptake” value ([2]; GA-treated MΦ (FIG. 5D)) was 2.8 fold.
